Results from ChEMBL document CHEMBL1201862, “PubChem BioAssay data set” (2004).
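1) Cells in 96-well plates. 2) Compound, 48 h, 5 concentrations. 3) Linear interpolation between surrounding doses. 4) Unreached endpoint = highest concentration. GI50 = concentration required for 50% inhibition of growth.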 The source made the active and inactive calls. Cut-off read from the data, not from the text of the source: active = GI50 up to about 1.1 µM and inactive = higher.

Experiments:
Test in all cases: inhibition of tumour cell growth, NCI panel, 48 h
OVCAR-8 = tested on: OVCAR-8
OVCAR-5 = tested on: OVCAR-5
SNB-19 = tested on: SNB-19
K562 = tested on: K562
T47D = tested on: T47D
EKVX = tested on: EKVX
UACC-62 = tested on: UACC-62
NCI-H460 = tested on: NCI-H460
Hs-578T = tested on: Hs-578T
HOP-62 = tested on: HOP-62
A549 = tested on: A549
RXF 393 = tested on: RXF 393
MDA-N = tested on: MDA-N
HCT-116 = tested on: HCT-116
NCI-H522 = tested on: NCI-H522
Malme-3M = tested on: Malme-3M
ACHN = tested on: ACHN
TK-10 = tested on: TK-10
HL-60 = tested on: HL-60
KM12 = tested on: KM12

| SMILES | GI50 (OVCAR-8) | GI50 (OVCAR-5) | GI50 (SNB-19) | GI50 (K562) | GI50 (T47D) | GI50 (EKVX) | GI50 (UACC-62) | GI50 (NCI-H460) | GI50 (Hs-578T) | GI50 (HOP-62) | GI50 (A549) | GI50 (RXF 393) | GI50 (MDA-N) | GI50 (HCT-116) | GI50 (NCI-H522) | GI50 (Malme-3M) | GI50 (ACHN) | GI50 (TK-10) | GI50 (HL-60) | GI50 (KM12) |
| --- | --- | --- | --- | --- | --- | --- | --- | --- | --- | --- | --- | --- | --- | --- | --- | --- | --- | --- | --- | --- |
| O=[N+]([O-])c1cccc(/C=N/NC2=CS(=O)(=O)C=C2)c1 | > 100 µM (inactive) | > 100 µM (inactive) | > 100 µM (inactive) | > 100 µM (inactive) | > 100 µM (inactive) | > 100 µM (inactive) | > 100 µM (inactive) | > 100 µM (inactive) | > 100 µM (inactive) | > 100 µM (inactive) | > 100 µM (inactive) | > 100 µM (inactive) | > 100 µM (inactive) | > 100 µM (inactive) | > 100 µM (inactive) | > 100 µM (inactive) | > 100 µM (inactive) | > 100 µM (inactive) | 42.6 µM (inactive) | > 100 µM (inactive) |
| COC(=O)Nc1nc2cc(NS(=O)(=O)c3ccc(F)cc3)ccc2[nH]1 | 35 µM (inactive) | 45.2 µM (inactive) | 6.46 µM (inactive) | 4.65 µM (inactive) | > 100 µM (inactive) | 31.3 µM (inactive) | 9.23 µM (inactive) | 24.7 µM (inactive) | 2.07 µM (inactive) | 43.3 µM (inactive) | 37.2 µM (inactive) | 18.5 µM (inactive) | 2.14 µM (inactive) | 4.54 µM (inactive) | 2.1 µM (inactive) | 7.5 µM (inactive) | 42.2 µM (inactive) | 14.4 µM (inactive) | 4.03 µM (inactive) | 4.43 µM (inactive) |
| O=C1CSC(c2ccccc2O)N1c1nc2cc3sc(N4C(=O)CSC4c4ccccc4O)nc3cc2s1 (stereo not given) | 37.2 µM (inactive) | > 100 µM (inactive) | 42 µM (inactive) | 64.3 µM (inactive) | 47.8 µM (inactive) | 61.9 µM (inactive) | > 87.5 µM (inactive) | 2.3 µM (inactive) | > 58.9 µM (inactive) | > 100 µM (inactive) | 3.85 µM (inactive) | > 100 µM (inactive) | 34.8 µM (inactive) | 20.7 µM (inactive) | 7.06 µM (inactive) | > 77.3 µM (inactive) | > 44.6 µM (inactive) | > 100 µM (inactive) | 31.6 µM (inactive) | > 68.4 µM (inactive) |
| Cc1ccc(O)c(C2=CC(c3cccc(Br)c3)SC(=N)N2)c1 (stereo not given) | 35.2 µM (inactive) | 29.5 µM (inactive) | 13.6 µM (inactive) | 24.5 µM (inactive) | 26.5 µM (inactive) | 21 µM (inactive) | 17.1 µM (inactive) | 20.5 µM (inactive) | 20.4 µM (inactive) | 21.6 µM (inactive) | 25.8 µM (inactive) | 19.5 µM (inactive) | 19.7 µM (inactive) | 17.3 µM (inactive) | 16 µM (inactive) | 25.2 µM (inactive) | 23.3 µM (inactive) | 19.6 µM (inactive) | 29 µM (inactive) | 27 µM (inactive) |
| COC(=O)c1ccccc1/C=C1\Cc2cc(C)c(C)cc2C1=O | 55.7 µM (inactive) | > 100 µM (inactive) | 33.4 µM (inactive) | > 100 µM (inactive) | > 100 µM (inactive) | > 100 µM (inactive) | > 100 µM (inactive) | > 100 µM (inactive) | 40.7 µM (inactive) | 30.4 µM (inactive) | > 100 µM (inactive) | 89.1 µM (inactive) | > 100 µM (inactive) | > 100 µM (inactive) | 73.8 µM (inactive) | > 100 µM (inactive) | > 100 µM (inactive) | 36.9 µM (inactive) | > 100 µM (inactive) | > 100 µM (inactive) |
| COCN1C(N)=C(C(=O)OC(C)(C)C)C2=CC(=O)C=CC21C (stereo not given) | 18 µM (inactive) | 18.1 µM (inactive) | > 100 µM (inactive) | 4.92 µM (inactive) | 2.59 µM (inactive) | 16.5 µM (inactive) | 15.6 µM (inactive) | 18.4 µM (inactive) | 15.2 µM (inactive) | 28.4 µM (inactive) | 18.9 µM (inactive) | 6.25 µM (inactive) | 16.1 µM (inactive) | 7.83 µM (inactive) | 3.4 µM (inactive) | 9.75 µM (inactive) | 7.01 µM (inactive) | 13.4 µM (inactive) | 14.4 µM (inactive) | 16.6 µM (inactive) |
| O=C(Nc1ccc(Cl)cc1)c1cc(S(=O)(=O)Nc2n[nH]c(Nc3ccc4ccccc4c3)n2)c(SSc2cc(Cl)c(C(=O)Nc3ccc(Cl)cc3)cc2S(=O)(=O)Nc2n[nH]c(Nc3ccc4ccccc4c3)n2)cc1Cl | 27 µM (inactive) | 20.5 µM (inactive) | 21.3 µM (inactive) | 20.5 µM (inactive) | 3.2 µM (inactive) | 42.9 µM (inactive) | 22.9 µM (inactive) | 26.7 µM (inactive) | 31.8 µM (inactive) | 27.7 µM (inactive) | 41.7 µM (inactive) | 32.5 µM (inactive) | 32.4 µM (inactive) | 18.6 µM (inactive) | 22.6 µM (inactive) | 21.6 µM (inactive) | 21.6 µM (inactive) | 27.3 µM (inactive) | 25.1 µM (inactive) | 20 µM (inactive) |
| CN1CCN([C@H]2C[C@H]3[C@@H]4CC=C5C[C@@H](N6CCCC6)CC[C@]5(C)[C@H]4CC[C@]3(C)[C@H]2O)CC1 | 66.8 µM (inactive) | 50.2 µM (inactive) | 90.4 µM (inactive) | 14.9 µM (inactive) | > 100 µM (inactive) | > 100 µM (inactive) | 67.3 µM (inactive) | 71.8 µM (inactive) | > 100 µM (inactive) | 51.1 µM (inactive) | 37.8 µM (inactive) | 10.7 µM (inactive) | 19 µM (inactive) | 22 µM (inactive) | > 100 µM (inactive) | 19.9 µM (inactive) | > 100 µM (inactive) | > 100 µM (inactive) | 21.2 µM (inactive) | 56 µM (inactive) |
| COc1cc2c(c(OC)c1OC)C(=O)[C@@H]1[C@H]2N1C(=O)NCCCl | 79.4 µM (inactive) | > 100 µM (inactive) | > 100 µM (inactive) | 45.8 µM (inactive) | 48.3 µM (inactive) | 53 µM (inactive) | 61.4 µM (inactive) | 40.6 µM (inactive) | 61.2 µM (inactive) | > 100 µM (inactive) | 58.2 µM (inactive) | 53.3 µM (inactive) | 32.4 µM (inactive) | 41.7 µM (inactive) | 49.2 µM (inactive) | 64.7 µM (inactive) | 50.5 µM (inactive) | > 100 µM (inactive) | 29.2 µM (inactive) | 53.3 µM (inactive) |
| C[n+]1c(-c2ccc(NC(=O)c3ccc(C(=O)Nc4ccc(-c5cn6ccccc6[n+]5C)cc4)cc3)cc2)cn2ccccc21 | > 100 µM (inactive) | > 100 µM (inactive) | > 100 µM (inactive) | > 100 µM (inactive) | > 100 µM (inactive) | > 100 µM (inactive) | > 100 µM (inactive) | > 100 µM (inactive) | > 100 µM (inactive) | > 100 µM (inactive) | > 100 µM (inactive) | 39.6 µM (inactive) | > 69.8 µM (inactive) | > 100 µM (inactive) | > 100 µM (inactive) | 56.5 µM (inactive) | > 100 µM (inactive) | > 100 µM (inactive) | 23.4 µM (inactive) | > 82.6 µM (inactive) |
| CC(CCCCNC(=O)OC(C)(C)C)NC(=O)NC(C)CCCCNC(=O)OC(C)(C)C (stereo not given) | > 100 µM (inactive) | > 100 µM (inactive) | > 100 µM (inactive) | 83.2 µM (inactive) | 83 µM (inactive) | > 100 µM (inactive) | 73.6 µM (inactive) | > 100 µM (inactive) | > 100 µM (inactive) | > 100 µM (inactive) | > 100 µM (inactive) | > 100 µM (inactive) | 72.6 µM (inactive) | 50.7 µM (inactive) | > 100 µM (inactive) | > 100 µM (inactive) | > 100 µM (inactive) | 31.3 µM (inactive) | 39 µM (inactive) | > 100 µM (inactive) |
| C=C(C(=O)OC)c1cc2ccccc2n1S(=O)(=O)c1ccccc1 | 2.44 µM (inactive) | 5.68 µM (inactive) | 12.1 µM (inactive) | 2.34 µM (inactive) | 1.7 µM (inactive) | 12.1 µM (inactive) | 4.52 µM (inactive) | 2.21 µM (inactive) | 4.11 µM (inactive) | 3.43 µM (inactive) | 3.05 µM (inactive) | 0.792 µM (active) | 2.7 µM (inactive) | 6.55 µM (inactive) | 0.891 µM (active) | 2.11 µM (inactive) | 1.8 µM (inactive) | 1.57 µM (inactive) | 1.87 µM (inactive) | 2.04 µM (inactive) |
| CC(C)N(C(C)C)S(=O)(=O)C[C@]12CC[C@H](CC13OCC(CS(=O)(=O)c1ccccc1)O3)C2(C)C (stereo not given in full) | 47 µM (inactive) | > 76.4 µM (inactive) | 95.7 µM (inactive) | 24.5 µM (inactive) | 27.1 µM (inactive) | 39.3 µM (inactive) | 49 µM (inactive) | 39.2 µM (inactive) | 94.4 µM (inactive) | > 51.2 µM (inactive) | 36.6 µM (inactive) | 49 µM (inactive) | 51.4 µM (inactive) | 35.9 µM (inactive) | 21.8 µM (inactive) | 89.1 µM (inactive) | 47.8 µM (inactive) | 44.9 µM (inactive) | 13 µM (inactive) | 36.4 µM (inactive) |
